Target: T1, FSH receptor (Homo sapiens, UniProt P23945)
T1 sequence (P23945 18-695): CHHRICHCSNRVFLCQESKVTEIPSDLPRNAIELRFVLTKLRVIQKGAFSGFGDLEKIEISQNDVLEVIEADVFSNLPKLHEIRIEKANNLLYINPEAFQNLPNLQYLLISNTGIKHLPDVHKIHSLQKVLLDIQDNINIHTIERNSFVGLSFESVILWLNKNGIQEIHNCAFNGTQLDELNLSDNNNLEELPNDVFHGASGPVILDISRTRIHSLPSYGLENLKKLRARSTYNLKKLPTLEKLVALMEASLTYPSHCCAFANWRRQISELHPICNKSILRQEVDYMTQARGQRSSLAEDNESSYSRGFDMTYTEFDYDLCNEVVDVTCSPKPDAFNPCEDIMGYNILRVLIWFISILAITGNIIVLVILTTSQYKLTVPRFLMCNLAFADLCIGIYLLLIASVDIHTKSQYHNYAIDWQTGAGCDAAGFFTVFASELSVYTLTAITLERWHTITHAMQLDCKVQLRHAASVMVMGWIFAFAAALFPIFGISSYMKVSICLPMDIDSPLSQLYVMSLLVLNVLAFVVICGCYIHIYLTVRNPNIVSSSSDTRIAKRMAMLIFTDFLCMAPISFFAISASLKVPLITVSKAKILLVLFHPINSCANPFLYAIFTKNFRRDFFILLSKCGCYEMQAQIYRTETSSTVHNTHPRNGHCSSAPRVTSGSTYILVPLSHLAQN
Experiment: FSH Receptor Radioligand Membrane Binding Standard Pharmacological Test Procedure
Set-up: expressed in transfected cells
Conditions: [125I]FSH binding to membranes of CHO cells stably transfected with the human FSH receptor
Procedure: FSH Receptor Radioligand Membrane Binding Standard Pharmacological Test Procedure
Membrane Source: Chinese hamster ovarian cells stably transfected with the human FSH receptor were cultured (Ultra CHO medium containing 1% fetal bovine serum and 200 μg/mL G418) in and harvested. Cells were collected by centrifugation and resulting cell pellets were frozen and stored at −70° C.
Membrane Receptor Preparation: Frozen cell pellets were weighed and resuspended in binding buffer to a final concentration of 30 mg wet weight/mL. Cell suspension for each pellet was homogenized using a Tempest homogenizer (setting=1; 5 strokes; VirTis, Gardiner, N.Y.). Cell homogenates were pooled and 35 mL aliquots were transferred to 50-mL polypropylene copolymer centrifuge tubes (Nalgene cat. #3110-0500). Tubes were spun at 12,000 rpm (SS34 rotor) for 12 min at 4° C. Resulting supernatant fractions were discarded and pellets were stored at −70° C. until use. On the day of the procedure, 35 mL binding buffer was added to each tube (35 mL membrane suspension was sufficient for three 96-well plates). The membrane pellet was dispersed by trituration using a pipet. The resulting suspension wass homogenized using a Tempest homogenizer (3 strokes at setting=1).
Receptor Binding Test procedure: Membrane homogenate (100 μl) was added to each well of a 96-well microtiter plate (Falcon # 3077). All reactions were tested in triplicate. Test compound solutions (50 μl) were added to the designated wells. Total bound counts were determined by adding 50 μl binding buffer containing 4% DMSO to the designated wells. […] Plates were pre-incubated for 15 min at room temperature on shaking platform (setting=3). After preincubation [^125I]FSH (50 μl) was added to each well and plates were incubated for 2 h at room temperature on shaking platform (setting=3). The reaction was terminated by transfer of the membrane preparation to glass fiber filters (Blue Mat #11740; 102×256 mm; Skatron Instruments, Sterling, Va.) that had been pretreated with 1% BSA in wash buffer for at least 30 min, but not longer than 1 h using a 96-well microtiter vacuum harvester (Skatron Instruments). The membrane preparation was washed with 5 cycles of ice-cold wash buffer (200 μl/well/cycle) followed by a pulse wash of 3 cycles (100 μl/well/cycle). The total wash volume per well was 1.3 mL. The filters were dried by a 10 sec aspiration. Disks corresponding to each well of the microtiter plate were punched out of the filter mat into 12×75 mm polypropylene tubes. The radioactivity present on each of the disks was measured using a gamma counter.
An FSH dose response curve (0.001, 0.01, 0.1, 1, 10, and 100 nM) was generated for each binding procedure to monitor procedure to procedrue variability.
FSH Receptor Radioligand Membrane Binding Procedure Buffers and Reagents
Binding buffer is prepared in 11 volumes containing Trizma-HCl, MgCl2, CaCl2 and sodium azide, the pH was adjusted to 7.2 with NaOH, and stored at 4° C. until use. BSA was weighed out on the day of the procedure and added to the amount of buffer required for the procedure (usually 150 mL). The protease inhibitors were prepared as 1 mg/mL stocks (aprotinin, leupeptin, and phosphoramidon were prepared in binding buffer without BSA and protease inhibitors; pepstatin and PMSF were prepared in methanol), stored in 1 mL aliquots at −70° C., and added to the binding buffer on the day of the procedure.
Wash buffer was prepared containing Trizma-HCl, MgCl2 and EDTA, the pH was adjusted to 7.2 with NaOH, and stored at 4° C.
Filter Soak Buffer (pH 7.2)
BSA was weighed out on the day of the procedure and added to 300 mL of wash buffer. The filter soak buffer was used for two procedures before being discarded.
A portion of the stock solution was diluted in binding buffer to a concentration of 200 pM.
FSH Solution for Determining Non-specific Binding: Purified human FSH was prepared as a 100 μM solution in binding buffer without protease inhibitors. […]

| Compound | IC50 |
| --- | --- |
| COc1ccc(C(=O)Nc2ccc(/C=C/c3ccc(NC(=O)c4ccc(OC)c(S(=O)(=O)N5CCCCC5)c4)cc3S(=O)(=O)O)c(S(=O)(=O)O)c2)cc1S(=O)(=O)N1CCCCC1 [Example 30h, 2,2′-[(E)-1,2-Ethenediyl]bis[5-[[4-methoxy-3-(1-piperidinylsulfonyl)benzoyl]amino]benzenesulfonic Acid]] | 7.3 µM |
| O=C(O)CS(=O)(=O)c1cccc(C(=O)Nc2ccc(C=Cc3ccc(NC(=O)c4cccc(S(=O)(=O)CC(=O)O)c4)cc3S(=O)(=O)O)c(S(=O)(=O)O)c2)c1 [Example 36b, [3-(4-{2-[4-(3-Carboxymethanesulfonyl-benzoylamino)-2-sulfo-phenyl]-vinyl}-3-sulfo-phenylcarbamoyl)-benzenesulfonyl]-acetic Acid] | 21 µM |
| O=C(CS(=O)(=O)c1cccc(C(=O)Nc2ccc(/C=C/c3ccc(NC(=O)c4cccc(S(=O)(=O)CC(=O)NCCO)c4)cc3S(=O)(=O)O)c(S(=O)(=O)O)c2)c1)NCCO [Example 37c, 5-[[3-[[2-[(2-Hydroxyethyl)amino]-2-oxoethyl]sulfonyl]benzoyl]amino]-2-[(E)-2-[4-[[3-[[2-[(2-hydroxyethyl)amino]-2-oxoethyl]sulfonyl]benzoyl]amino]-2-sulfo-phenyl]ethenyl]benzenesulfonic Acid] | 6.7 µM |
| NC(=O)CS(=O)(=O)c1cccc(C(=O)Nc2ccc(/C=C/c3ccc(NC(=O)c4cccc(S(=O)(=O)CC(N)=O)c4)cc3S(=O)(=O)O)c(S(=O)(=O)O)c2)c1 [Example 37d, 5-[[3-[(2-Amino-2-oxoethyl)sulfonyl]benzoyl]amino]-2-[(E)-2-[4-[[3-[(2-amino-2-oxoethyl)sulfonyl]benzoyl]amino]-2-sulfophenyl]ethenyl]-benzenesulfonic Acid] | 4.3 µM |
| COCCOc1ccc(C(=O)Nc2ccc(/C=C/c3ccc(NC(=O)c4ccc(S(C)(=O)=O)cc4)cc3S(=O)(=O)O)c(S(=O)(=O)O)c2)cc1 [Example 40a, 5-[[4-(2-Methoxyethoxy)benzoyl]amino]-2-[(E)-2-[4-[[4-(methanesulfonyl)benzoyl]amino]-2-sulfophenyl]ethenyl]benzenesulfonic Acid] | 6.2 µM |
| CS(=O)(=O)Cc1ccc(C(=O)Nc2ccc(/C=C/c3ccc(NC(=O)c4ccc(S(C)(=O)=O)cc4)cc3S(=O)(=O)O)c(S(=O)(=O)O)c2)cc1 [Example 40b, 5-[[4-(Methylsulfonyl)benzoyl]amino]-2-[(E)-2-[4-[[4-[(methylsulfonyl)methyl]benzoyl]amino]-2-sulfophenyl]ethenyl]benzenesulfonic Acid] | 5.2 µM |
| COc1ccc(C(=O)Nc2ccc(CCc3ccc(NC(=O)c4ccc(OC)c(S(=O)(=O)N5CCS(=O)(=O)CC5)c4)cc3S(=O)(=O)O)c(S(=O)(=O)O)c2)cc1S(=O)(=O)N1CCS(=O)(=O)CC1 [Example 43c, 2,2′-(1,2-Ethanediyl)bis[5-[[3-[(1,1-dioxido-4-thiomorpholinyl)sulfonyl]-4-methoxybenzoyl]amino]benzenesulfonic Acid]] | 4.5 µM |
| CS(=O)(=O)c1ccc(C(=O)Nc2ccc(CCc3ccc(NC(=O)c4ccc(S(C)(=O)=O)cc4)cc3S(=O)(=O)O)c(S(=O)(=O)O)c2)cc1 [Example 43e] | 4.3 µM |
| COc1ccc(C(=O)Nc2ccc(CSCc3ccc(NC(=O)c4ccc(OC)c(S(=O)(=O)N5CCOCC5)c4)cc3S(=O)(=O)O)c(S(=O)(=O)O)c2)cc1S(=O)(=O)N1CCOCC1 [Example 50a, 2,2′-[Thiobis(methylene)]bis[5-[[4-methoxy-3-(4-morpholinylsulfonyl)benzoyl]amino]benzenesulfonic Acid]] | 34 µM |
| COc1ccc(C(=O)Nc2ccc(CS(=O)(=O)Cc3ccc(NC(=O)c4ccc(OC)c(S(=O)(=O)N5CCOCC5)c4)cc3S(=O)(=O)O)c(S(=O)(=O)O)c2)cc1S(=O)(=O)N1CCOCC1 [Example 50b, 2,2′-[Sulfonylbis(methylene)]bis[5-[[4-methoxy-3-(4-morpholinylsulfonyl)benzoyl]amino]benzenesulfonic acid]] | 41 µM |
| CSc1ccc(C(=O)Nc2ccc(C=Cc3ccc(NC(=O)c4ccc(SC)c(S(=O)(=O)N5CCOCC5)c4)cc3S(=O)(=O)O)cc2)cc1S(=O)(=O)N1CCOCC1 [Example 59, 5-[4-Methylsulfanyl-3-(morpholine-4-sulfonyl)-benzoylamino]-2-(2-{[4-methylsulfanyl-3-(morpholine-4-sulfonyl)-benzoylamino]-phenyl}-vinyl)-benzenesulfonic Acid] | 16 µM |

Target: T1, FSH receptor
Experiment: In Vitro Bio-test Procedure of Agonists and Antagonists to the FSH Receptor (cAMP accumulation in CHO-3D2 cells)
Format: cell-based
Set-up: expressed in transfected cells; host or cells: CHO-3D2 cells
Conditions: not given
Procedure: In Vitro Bio-test Procedure of Agonists and Antagonists to the FSH Receptor
The compounds were subsequently diluted in sterile procedure medium (Optimem (Gibco/BRL, Grand Island, N.Y.)/0.1% BSA) prior to use in the bio-procedure.
Preparation of CHO-3D2 Cells; CHO-3D2 cells were plated into 96-well Nunc tissue culture plates at a density of 30,000 cells/well in DMEM/F12 medium (Gibco/BRL, Grand Island, N.Y.) supplemented with 5% Fetal Bovine Serum (Hyclone, Fetal Clone II), 2 mM L-glutamine and penicillin/streptomycin (100 U/mL). Cells were plated one day prior to performing the bio-procedure.
Procedure: On the day of procedure, the wells were washed two times with 100 ul/well of pre-warmed (37 deg C.) procedure medium. After aspirating the second wash, an additional 100 ul of procedure medium was added to each well and the cells pre-incubated for 30-45 minutes at 37 deg C. In a humidified incubator with 5%CO2/95% air. The cells were then challenged with varying dilutions of the test substance(s) in a 50 ul total incubation volume in procedure medium for 30 minutes at 37 deg C. in the humidified incubator. The challenge was terminated by the addition of 50 ul of 0.2 N HCl to each well. CAMP accumulation in the medium was measured by radioimmunoassay.
Test Groups: In the 96-well format, the plate is organized into 12 columns each containing 8 rows of wells. The plate was split in half to test a single compound in both agonist and antagonist mode on the same plate.
For agonist mode, compounds were tested using 5 different concentrations in a dose-response paradigm using one column as a control (challenge medium alone) in agonist mode.
The 96-well format allowed for the capability to test 4 columns of compound, using one of the remaining columns for negative control (challenge medium alone) and the other remaining column for ampositive control (ED20 of FSH alone).
The doses chosen to test each compound were extrapolated from the initial screening process (receptor binding data). Along with the test compounds, FSH was run in agonist mode using doses ranging from 0.1 ng/mL-1000 ng/mL as a postive control. Cytotoxicity of the compounds were screened by treating cells with the highest concentration of each compound used in the cAMP procedure for 30 minutes followed by washing of the cells 2 times with 100 ul PBS. The cells were then incubated for 5 min at 37 deg C. in the presence of 50 ug/mL Fluorescein diacetate and 20 ug/mL Propidium iodide in 100 ul PBS. The cells were washed two times with 100 ul PBS followed by examination of the cells under a fluorescence microscope using a 490 nm filter. Viable cells stained green throughout, while dead cells had red fluorescent nuclei.
Analysis of Results: cAMP accumulation was expressed as fmol/mL. […] Data were analyzed statistically by analysis of variance and significant differences between treatments and control determined by Dunnett's test. In antagonist mode, a Duncan's test was used.
Reference Compounds: Test compounds were compared to the effect of purified or recombinant human FSH.

| Compound | IC50 |
| --- | --- |
| COc1ccc(C(=O)Nc2ccc(/C=C/c3ccc(NC(=O)c4ccc(OC)c(S(=O)(=O)N5CCCCC5)c4)cc3S(=O)(=O)O)c(S(=O)(=O)O)c2)cc1S(=O)(=O)N1CCCCC1 [Example 30h, 2,2′-[(E)-1,2-Ethenediyl]bis[5-[[4-methoxy-3-(1-piperidinylsulfonyl)benzoyl]amino]benzenesulfonic Acid]] | 8.1 µM |
